The values below come from US20110152313A1 (MACQUARIE UNIVERSITY, priority 2008, published 2011).

What all share (test): kinase binding screen (kinase-tagged T7 phage, qPCR), % Ctrl
Experiment [1] has as its target T1, CAMK4 (Homo sapiens, UniProt Q16566).
T1 sequence (Q16566 1-473): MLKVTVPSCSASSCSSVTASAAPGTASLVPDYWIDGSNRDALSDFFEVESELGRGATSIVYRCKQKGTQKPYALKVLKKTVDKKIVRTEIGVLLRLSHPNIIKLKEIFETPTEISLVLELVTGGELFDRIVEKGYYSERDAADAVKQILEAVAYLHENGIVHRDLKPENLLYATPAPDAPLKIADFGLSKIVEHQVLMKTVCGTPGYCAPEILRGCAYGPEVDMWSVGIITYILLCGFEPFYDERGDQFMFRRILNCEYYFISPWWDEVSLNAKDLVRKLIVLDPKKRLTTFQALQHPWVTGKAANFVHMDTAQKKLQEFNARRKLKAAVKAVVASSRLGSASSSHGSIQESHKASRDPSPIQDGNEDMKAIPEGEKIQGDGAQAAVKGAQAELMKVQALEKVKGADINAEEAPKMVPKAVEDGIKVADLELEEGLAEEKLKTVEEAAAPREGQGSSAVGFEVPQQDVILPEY
A digest of the protocol:
(§1)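 Competition binding: kinase-tagged T7 phage (grown in BL21-derived E. coli, lysed at 32° C) incubated with immobilized ligand on biotin-blocked beads plus test compound; bound kinase in eluates quantified by qPCR. Compounds tested at a single set concentration, added from 40× DMSO stocks.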

In experiment [2] the target is CAMKK1 (Homo sapiens, UniProt Q8N5S9). In a few lines: as §1
For experiment [3], the target named is IRAK1 (Homo sapiens, UniProt P51617). A digest of the protocol:
as §1

Experiment [4] deals with T2, MAP3K2 (Homo sapiens, UniProt Q9Y2U5).
T2 sequence (Q9Y2U5 1-619): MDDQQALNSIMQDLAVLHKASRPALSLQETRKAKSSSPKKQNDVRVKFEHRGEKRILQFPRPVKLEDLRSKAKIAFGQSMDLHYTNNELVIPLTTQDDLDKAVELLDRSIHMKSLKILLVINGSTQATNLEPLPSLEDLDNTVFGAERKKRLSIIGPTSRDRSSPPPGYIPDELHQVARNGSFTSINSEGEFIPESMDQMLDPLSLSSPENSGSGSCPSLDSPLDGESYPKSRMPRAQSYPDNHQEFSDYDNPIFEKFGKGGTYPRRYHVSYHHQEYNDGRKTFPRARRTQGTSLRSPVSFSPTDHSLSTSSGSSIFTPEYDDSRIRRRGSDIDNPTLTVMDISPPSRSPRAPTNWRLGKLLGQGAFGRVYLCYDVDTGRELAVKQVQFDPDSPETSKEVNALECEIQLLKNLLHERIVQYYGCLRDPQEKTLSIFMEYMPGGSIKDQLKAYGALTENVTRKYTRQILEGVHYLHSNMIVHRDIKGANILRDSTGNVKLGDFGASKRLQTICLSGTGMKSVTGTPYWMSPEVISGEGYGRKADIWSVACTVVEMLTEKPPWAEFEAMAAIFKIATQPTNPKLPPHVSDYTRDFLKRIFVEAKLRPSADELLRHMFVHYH
In a few lines:
as §1

The target in experiment [5] is T3, TBK1 (Homo sapiens, UniProt Q9UHD2).
T3 sequence (Q9UHD2 1-729): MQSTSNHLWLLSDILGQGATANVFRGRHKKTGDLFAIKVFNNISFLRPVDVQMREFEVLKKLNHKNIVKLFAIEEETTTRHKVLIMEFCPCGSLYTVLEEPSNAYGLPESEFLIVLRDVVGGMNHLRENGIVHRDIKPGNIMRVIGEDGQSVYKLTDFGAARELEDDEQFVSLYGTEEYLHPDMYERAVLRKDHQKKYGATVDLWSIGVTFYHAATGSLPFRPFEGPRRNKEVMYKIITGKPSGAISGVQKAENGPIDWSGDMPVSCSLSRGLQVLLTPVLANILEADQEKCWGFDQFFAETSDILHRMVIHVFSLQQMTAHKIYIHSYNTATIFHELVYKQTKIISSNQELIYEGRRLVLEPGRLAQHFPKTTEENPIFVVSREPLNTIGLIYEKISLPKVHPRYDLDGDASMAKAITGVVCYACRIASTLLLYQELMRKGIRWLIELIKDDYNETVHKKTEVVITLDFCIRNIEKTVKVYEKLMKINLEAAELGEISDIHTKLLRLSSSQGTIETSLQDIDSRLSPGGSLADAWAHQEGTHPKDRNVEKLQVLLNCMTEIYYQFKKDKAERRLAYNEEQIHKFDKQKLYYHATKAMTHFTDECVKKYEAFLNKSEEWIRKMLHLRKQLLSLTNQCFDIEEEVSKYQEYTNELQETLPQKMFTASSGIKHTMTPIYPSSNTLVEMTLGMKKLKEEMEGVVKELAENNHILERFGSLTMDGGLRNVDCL
In a few lines:
as §1

Experiment [6] addresses CLK4 (Homo sapiens, UniProt Q9HAZ1). In a few lines:
as §1

Experiment [7] deals with CAMK2G (Homo sapiens, UniProt Q13555). In a few lines: as §1

Structures are written as SMILES.

Chain of CLK4 (Q9HAZ1 whole entry, species assumed): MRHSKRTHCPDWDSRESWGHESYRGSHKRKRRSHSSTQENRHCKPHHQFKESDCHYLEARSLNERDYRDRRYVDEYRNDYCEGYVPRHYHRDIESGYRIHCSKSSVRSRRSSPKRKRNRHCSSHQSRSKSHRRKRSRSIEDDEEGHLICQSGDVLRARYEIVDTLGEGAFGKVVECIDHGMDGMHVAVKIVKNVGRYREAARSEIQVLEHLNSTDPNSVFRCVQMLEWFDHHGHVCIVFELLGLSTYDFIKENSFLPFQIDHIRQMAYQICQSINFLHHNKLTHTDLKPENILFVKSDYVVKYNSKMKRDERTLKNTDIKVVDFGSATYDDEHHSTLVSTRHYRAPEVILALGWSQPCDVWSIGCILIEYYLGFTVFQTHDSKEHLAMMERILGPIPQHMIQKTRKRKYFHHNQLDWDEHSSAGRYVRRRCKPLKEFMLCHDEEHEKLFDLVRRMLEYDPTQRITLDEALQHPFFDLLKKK
Chain of CAMKK1 (Q8N5S9 whole entry): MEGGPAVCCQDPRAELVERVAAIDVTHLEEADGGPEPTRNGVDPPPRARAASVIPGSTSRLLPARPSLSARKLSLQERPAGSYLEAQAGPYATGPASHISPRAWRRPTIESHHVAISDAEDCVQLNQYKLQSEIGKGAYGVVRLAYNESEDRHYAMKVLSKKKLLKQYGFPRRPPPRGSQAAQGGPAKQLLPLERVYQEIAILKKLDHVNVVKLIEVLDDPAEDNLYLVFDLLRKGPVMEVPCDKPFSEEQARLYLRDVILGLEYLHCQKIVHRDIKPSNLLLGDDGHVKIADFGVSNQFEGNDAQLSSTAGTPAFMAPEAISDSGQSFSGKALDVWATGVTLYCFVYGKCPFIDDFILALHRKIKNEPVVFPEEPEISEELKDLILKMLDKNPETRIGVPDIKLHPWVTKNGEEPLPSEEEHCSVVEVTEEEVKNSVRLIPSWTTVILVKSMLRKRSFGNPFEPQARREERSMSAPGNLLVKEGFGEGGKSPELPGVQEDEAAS
Chain of CAMK2G (Q13555 whole entry): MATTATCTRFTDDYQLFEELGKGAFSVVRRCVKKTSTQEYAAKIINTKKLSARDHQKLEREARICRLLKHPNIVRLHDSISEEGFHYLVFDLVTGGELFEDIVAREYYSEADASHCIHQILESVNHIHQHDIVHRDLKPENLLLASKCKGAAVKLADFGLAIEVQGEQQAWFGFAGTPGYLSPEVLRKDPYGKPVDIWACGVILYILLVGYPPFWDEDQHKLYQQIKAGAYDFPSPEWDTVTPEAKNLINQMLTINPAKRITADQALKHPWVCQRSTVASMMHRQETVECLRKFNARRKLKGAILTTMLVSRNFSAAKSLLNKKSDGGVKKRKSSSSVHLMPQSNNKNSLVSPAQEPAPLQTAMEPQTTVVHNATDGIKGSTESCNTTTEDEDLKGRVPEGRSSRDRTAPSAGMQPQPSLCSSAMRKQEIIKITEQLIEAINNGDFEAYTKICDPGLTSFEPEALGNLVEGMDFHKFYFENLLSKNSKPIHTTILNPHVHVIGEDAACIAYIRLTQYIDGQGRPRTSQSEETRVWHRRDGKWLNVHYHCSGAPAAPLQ
Chain of IRAK1 (P51617 whole entry, species assumed): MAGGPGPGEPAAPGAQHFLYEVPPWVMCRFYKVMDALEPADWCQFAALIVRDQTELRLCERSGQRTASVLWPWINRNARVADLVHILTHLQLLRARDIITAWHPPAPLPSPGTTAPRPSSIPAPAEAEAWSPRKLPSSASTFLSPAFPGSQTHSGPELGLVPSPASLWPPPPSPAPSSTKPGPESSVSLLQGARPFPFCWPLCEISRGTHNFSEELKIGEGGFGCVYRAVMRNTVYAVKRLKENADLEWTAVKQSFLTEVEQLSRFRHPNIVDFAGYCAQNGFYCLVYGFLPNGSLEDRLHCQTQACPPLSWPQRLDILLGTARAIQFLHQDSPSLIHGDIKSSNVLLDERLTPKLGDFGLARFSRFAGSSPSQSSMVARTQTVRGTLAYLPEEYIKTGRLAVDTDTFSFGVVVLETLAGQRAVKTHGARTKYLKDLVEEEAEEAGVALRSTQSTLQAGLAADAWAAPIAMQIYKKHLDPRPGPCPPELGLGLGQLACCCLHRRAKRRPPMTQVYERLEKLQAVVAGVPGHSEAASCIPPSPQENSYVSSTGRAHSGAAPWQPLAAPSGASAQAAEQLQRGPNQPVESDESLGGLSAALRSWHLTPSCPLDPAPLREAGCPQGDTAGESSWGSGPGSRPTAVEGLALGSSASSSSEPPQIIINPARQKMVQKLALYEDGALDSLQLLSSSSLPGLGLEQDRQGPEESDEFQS

By remaining activity is commonly meant the activity still measured, relative to the control. Lower therefore signals little activity left. For `Nc1nc2c(-c3cc(Br)c(Br)[nH]3)nccc2[nH]1` [Ageladine A, ageladine A, reference compound], the remaining activity at 1 µM was 100% in experiment [1]; 92% in experiment [2]; 55% in experiment [3]; 73% in experiment [4]; 84% in experiment [5]; 51% in experiment [6]. In experiment [7], this compound yielded a remaining activity at 1 µM of 100%. Also, the remaining activity at 10 µM in experiment [1] (10 μM) was 97%; in experiment [2] (10 μM) it was 100%; in experiment [3] (10 μM), 35%; in experiment [4] (10 μM), 70%; in experiment [5] (10 μM), 78%; in experiment [6] (10 μM) it was 11%. The remaining activity at 10 µM in experiment [7] (10 μM) came out at 78%.
Regarding `Nc1nc2c(-c3ccccn3)nccc2[nH]1` [drawing 35, 4-(pyrid-2-yl)-1H-imidazo[4,5-c]pyridin-2-amine], the remaining activity at 1 µM amounted to 100% in experiment [1]; 19% in experiment [2]; 52% in experiment [3]; 54% in experiment [4]; 50% in experiment [5]; 60% in experiment [6]. This compound returned a remaining activity at 1 µM in experiment [7] of 20%.
On to `Nc1nc2c(-c3cnc4ccccc4c3)nccc2[nH]1` [drawing 36, 4-(quinolin-3-yl)-1H-imidazo[4,5-c]pyridin-2-amine], for which the remaining activity at 1 µM amounted to 100% in experiment [1]; 100% in experiment [2]; 89% in experiment [3]; 81% in experiment [4]; 79% in experiment [5]; 65% in experiment [6]. Besides, the remaining activity at 1 µM in experiment [7] was found to be 100%.
